# Results reported in patent US20150322038A1, “PYRAZINE DERIVATIVES AND THEIR USE IN THE TREATMENT OF NEUROLOGICAL DISORDERS” (NOVARTIS AG, priority 2009, published 2015).
# Legend:
# [1] = test system: cellular release of amyloid peptide 1-40; assay: Test 4: Inhibition of cellular release of amyloid peptide 1-40; type: cell-based; settings: Cricetulus griseus, Chinese hamster ovary cells transfected with the gene for amyloid precursor protein, 24 hours with compound, amyloid peptide 1-40 in supernatant, read-out: Bace IC50
# Procedure: Test 4: Inhibition of Cellular Release of Amyloid Peptide 1-40
# Chinese hamster ovary cells are transfected with the gene for amyloid precursor protein. The cells are plated at a density of 8000 cells/well into 96-well microtiter plates and cultivated for 24 hours in DMEM cell culture medium containing 10% FCS. The test compound is added to the cells at various concentrations, and the cells are cultivated for 24 hours in the presence of the test compound. The supernatants are collected, and the concentration of amyloid peptide 1-40 is determined using state of the art immunoassay techniques, for example sandwich ELISA, homogenous time-resolved fluorescence (HTRF) immunoassay, or electro-chemiluminescence immunoassay. The potency of the compound is calculated from the percentage of inhibition of amyloid peptide release as a function of the test compound concentration.
# [2] = target: human BACE-1 (Homo sapiens, UniProt P56817); assay: Test 1: Inhibition of human BACE-1; type: biochemical; settings: recombinant BACE-1, pH 4.5, fluorescence-quenched APP-derived peptide substrate
# Sequence of human BACE-1 (P56817 46-457 limits assumed): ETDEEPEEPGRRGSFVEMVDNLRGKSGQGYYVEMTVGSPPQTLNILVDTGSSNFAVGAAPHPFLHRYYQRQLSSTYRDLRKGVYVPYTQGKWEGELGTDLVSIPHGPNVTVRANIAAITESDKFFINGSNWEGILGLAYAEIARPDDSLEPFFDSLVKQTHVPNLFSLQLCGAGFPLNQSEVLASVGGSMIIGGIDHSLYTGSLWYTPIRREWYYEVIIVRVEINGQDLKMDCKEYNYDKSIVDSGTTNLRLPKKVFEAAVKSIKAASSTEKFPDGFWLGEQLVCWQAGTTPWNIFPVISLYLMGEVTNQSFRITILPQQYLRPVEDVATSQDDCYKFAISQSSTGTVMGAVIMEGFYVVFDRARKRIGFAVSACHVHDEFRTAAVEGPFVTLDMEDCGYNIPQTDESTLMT
# Procedure: Test 1: Inhibition of Human BACE-1
# IC50 values are calculated from percentage of inhibition of BACE-1 activity as a function of the test compound concentration.
IC50 [1] [nM],IC50 [2] [nM],SMILES
44,23,"CC(=O)N1CC(N)=NC(c2cc(NC(=O)c3ncc(OC(F)F)cc3C)ccc2F)(C(F)F)C1 (stereo not shown) [Example 26, 5-Difluoromethoxy-3-methyl-pyridine-2-carboxylic acid [3-(4-acetyl-6-amino-2-difluoromethyl-2,3,4,5-tetrahydro-pyrazin-2-yl)-4-fluoro-phenyl]-amide]"
860,220,"NC1=N[C@@](c2cc(NC(=O)c3ncc(=O)[nH]c3N)ccc2F)(C(F)F)CNC1 [Example 29, 3-Amino-5-oxo-4,5-dihydro-pyrazine-2-carboxylic acid [3-((R)-6-amino-2-difluoromethyl-2,3,4,5-tetrahydro-pyrazin-2-yl)-4-fluoro-phenyl]-amide]"
